“Also recorded” adds a separate entry of the source. Read-outs that look alike come from different tables or passages of the source.
What was measured:
[1] = system: HepG2 cells; assay: Lactic acid production in HepG2 cells; assay type: cell-based; details: 14-day assay, 10 μM
Method: To measure the effects of the compounds on lactic acid production, HepG2 cells from a stock culture were diluted and plated in 12-well culture plates at 2.5×10^4 cells per well. Various concentrations (0 μM, 0.1 μM, 1 μM, 10 μM and 100 μM) of compound were added, and the cultures were incubated at 37° C. in a humidified 5% CO2 atmosphere for 4 days. At day 4, the number of cells in each well was determined and the culture medium collected. The culture medium was then filtered, and the lactic acid content in the medium was determined using a colorimetric lactic acid assay (Sigma-Aldrich). Since lactic acid product can be considered a marker for impaired mitochondrial function, elevated levels of lactic acid production detected in cells grown in the presence of test compounds would indicate a drug-induced cytotoxic effect.
(§1) The effect of compounds 7 and 9 on the levels of mitochondrial and nuclear DNA, and lactic acid production was evaluated in HepG2 cells (14-day assay), and the data is tabulated below in Table 2: […]

[2] = system: mitochondrial DNA (COXII gene) in HepG2 cells; assay: Mitochondrial toxicity assay in HepG2 cells: mitochondrial DNA; assay type: cell-based; details: for IC50: read-out: IC50 MtDNA
Source text: (§2) A real-time PCR assay to accurately quantify mitochondrial DNA content has been developed (see Stuyver L J, Lostia S, Adams M, Mathew J S, Pai B S, Grier J, Tharnish P M, Choi Y, Chong Y, Choo H, Chu C K, Otto M J, Schinazi R F. Antiviral activities and cellular toxicities of modified 2′,3′-dideoxy-2′,3′-didehydrocytidine analogs. Antimicrob. Agents Chemother. 2002; 46: 3854-60). This assay was used in all studies described in this application that determine the effect of compounds on mitochondrial DNA content. In this assay, low-passage-number HepG2 cells were seeded at 5,000 cells/well in collagen-coated 96-well plates. Test compounds were added to the medium to obtain final concentrations of 0 μM, 0.1 μM, 10 μM and 100 μM. On culture day 7, cellular nucleic acids were prepared by using commercially available columns (RNeasy 96 kit; Qiagen). […] The mitochondrial cytochrome c oxidase subunit II (COXII) gene and the β-actin or rRNA gene were amplified from 5 μl of the eluted nucleic acids using a multiplex Q-PCR protocol with suitable primers and probes for both target and reference amplifications. For COXII the following sense, probe and antisense primers were used, respectively: 5′-TGCCCGCCATCATCCTA-3′, 5′-tetrachloro-6-carboxyfluorescein-[…]-TAMRA-3′ and 5′-[…]-3′. For exon 3 of the β-actin gene (GenBank accession number E01094) the sense, probe, and antisense primers are 5′-GCGCGGCTACAGCTTCA-3′, 5′-6-[…]-3′ and 5′-[…]-3′, respectively. The primers and probes for the rRNA gene are commercially available from Applied Biosystems. Since equal amplification efficiencies are obtained for all genes, the comparative CT method was used to investigate potential inhibition of mitochondrial DNA synthesis. The comparative CT method uses arithmetic formulas in which the amount of target (COXII gene) is normalized to the amount of an endogenous reference (the β-actin or rRNA gene) and is relative to a calibrator (a control with no drug at day 7). The arithmetic formula for this approach is given by 2−ΔΔCT, where ΔΔCT is (CT for average target test sample CT for target control)−(CT for average reference test−CT for reference control) (see Johnson M R, K Wang, J B Smith, M J Heslin, R B Diasio. Quantitation of dihydropyrimidine dehydrogenase expression by real-time reverse transcription polymerase chain reaction. Anal. Biochem. 2000; 278:175-184). A decrease in mitochondrial DNA content in cells grown in the presence of drug indicated mitochondrial toxicity.
as §1

[3] = system: nuclear DNA in HepG2 cells; assay: Mitochondrial toxicity assay in HepG2 cells: nuclear DNA; assay type: cell-based
Source text: as §2, §1

[4] = system: wild type HBV; assay: Anti-HBV assay in AD-38 cell line; assay type: cell-based; details: Hepatitis B virus, AD-38 cells, HBV in culture supernatant; for EC50: read-out: Anti-HBV activity EC50; for EC90: read-out: Anti-HBV activity EC90
Method: The anti-HBV activity of the compounds was determined by treating the AD-38 cell line carrying wild type HBV under the control of tetracycline (see Ladner S. K., Otto M. J., Barker C. S., Zaifert K., Wang G. H., Guo J. T., Seeger C. & King R. W. Antimicrob. Agents Chemother. 1997, 41, 1715-20). Removal of tetracycline from the medium [Tet (−)] results in the production of HBV. The levels of HBV in the culture supernatant fluids from cells treated with the compounds were compared with that of the untreated controls. Control cultures with tetracycline [Tet (+)] were also maintained to determine the basal levels of HBV expression. 3TC was included as positive control.
The median effective concentrations (EC50) ranges of several of the compounds described herein against HBV are shown in Table 3: […]

[5] = target: T1, HBV Cp149 capsids (Hepatitis B virus genotype D subtype adw, UniProt P03147); assay: Disruption of already-formed capsids, electron micrographs; assay type: biochemical; details: 25 μM compound, overnight at 4°, FIG. 2-4
T1 construct: hepatitis B virus core C-terminally truncated protein (HBV Cp149); made in house
T1 sequence (P03147 1-149): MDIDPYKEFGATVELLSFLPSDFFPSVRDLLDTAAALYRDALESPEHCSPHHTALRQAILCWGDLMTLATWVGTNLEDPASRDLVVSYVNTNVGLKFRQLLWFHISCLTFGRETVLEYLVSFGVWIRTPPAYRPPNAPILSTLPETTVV
Method: The next question was whether these compounds could disrupt already-formed capsids. Accordingly, the capsids were formed as discussed above (incubation of isolated HBV Cp149 with 300 mM NaCl, stored overnight at 4°). Then, the capsids were incubated with the putative compound (overnight at 4°), and electron micrographs were then taken.

[6] = target: T2, HBV Cp149 (Hepatitis B virus genotype D subtype adw, UniProt P03147); assay: Capsid formation assay, electron micrographs; assay type: biochemical; details: 25 μM compound
T2 construct: hepatitis B virus core C-terminally truncated protein (HBV Cp149); made in house
T2 sequence (P03147 1-149): as above
Method: In the absence of compounds which disrupt capsid formation, hepatitis B virus core C-terminally truncated protein (HBV Cp149, protein isolated by reported methods [Zlotnick, A et al; Biochem 1996, 35, 7412-7421] normally assembles into an HBV Cp149 capsid. The purpose of this example was to determine whether putative active agents would disrupt capsid formation, and thus be active as anti-HBV agents. Putative active agents were incubated at a concentration of 25 μM for 1 h at 4° C. with HBV Cp149 at a concentration of 10 μM. Capsid assembly was then promoted by adding 300 mM NaCl, and storing the mixture overnight at 4°. Negative-stain electron micrographs were collected using a JEOL JEM-1400 120 kV electron microscope using uranyl acetate as a contrast agent.

[7] = Cellular toxicity assay in Vero cells; assay type: cell-based; details: African green monkey, read-out: Cytotoxicity
Method: (§3) The toxicity of the compounds was assessed in Vero, human PBM, CEM (human lymphoblastoid), MT-2, and HepG2 cells, as described previously (see Schinazi R. F., Sommadossi J.-P., Saalmann V., Cannon D. L., Xie M.-Y., Hart G. C., Smith G. A. & Hahn E. F. Antimicrob. Agents Chemother. 1990, 34, 1061-67). Cycloheximide was included as positive cytotoxic control, and untreated cells exposed to solvent were included as negative controls. The cytotoxicity IC50 was obtained from the concentration-response curve using the median effective method described previously (see Chou T.-C. & Talalay P. Adv. Enzyme Regul. 1984, 22, 27-55; Belen'kii M. S. & Schinazi R. F. Antiviral Res. 1994, 25, 1-11).

[8] = Cellular toxicity assay in human PBM cells; assay type: cell-based; details: human, human PBM cells, read-out: Cytotoxicity
Method: as §3

[9] = Cellular toxicity assay in HepG2 cells; assay type: cell-based; details: human, read-out: Cytotoxicity
Method: as §3

[10] = Cellular toxicity assay in CEM cells; assay type: cell-based; details: human, CEM lymphoblastoid cells, read-out: Cytotoxicity
Method: as §3

[11] = HepG2 cells, 14-day assay, 10 μM

| Structure (SMILES) | EC50 [4] [µM] | EC90 [4] [µM] | CC50 [7] [µM] | CC50 [8] [µM] | CC50 [9] [µM] | CC50 [10] [µM] | also measured |
| --- | --- | --- | --- | --- | --- | --- | --- |
| Nc1ccn([C@H]2CC[C@@H](CO)O2)c(=O)n1 [ddC, reference compound] | – | – | – | – | – | – | Lactic acid production (% of control) [1]: 196 ± 73.0 % of control; MtDNA (% of control) [2]: 5.3 (5.0-5.8) % of control; % inhibition MtDNA [2, 11]: 97.4%; IC50 ([2]; HepG2 cells, 14-day assay): < 10 µM; IC50 ([3]; HepG2 cells, 14-day assay): < 10 µM; % inhibition nDNA [3, 11]: 52.4% |
| Nc1ccn([C@@H]2CS[C@H](CO)O2)c(=O)n1 [Compound 3TC, lamivudine, reference compound] | 0.1 to 0.9 | 1 to 9 | – | – | – | – | Lactic acid production (% of control) [1]: 94 ± 20.8 % of control; MtDNA (% of control) [2, 11]: 130 (85.7-196) % of control; inhibition at 10 µM ([2]; Homo sapiens, HepG2, 336 h, read-out: % inhibition MtDNA): 8.8%; IC50 ([2]; Homo sapiens, HepG2, 336 h): > 10 µM; IC50 ([3]; Homo sapiens, 336 h, HepG2 cells, 14-day assay): > 10 µM; inhibition at 10 µM ([3]; Homo sapiens, HepG2, 336 h, read-out: % inhibition nDNA): 29.6% |
| CCOC(=O)C1=C(CN2CCOCC2)NC(c2nccs2)=NC1c1ccc(F)cc1Br (centres unmarked) [GLS4, Morphothiadine mesilate] | – | – | – | – | – | – | Effect on already-formed capsids [5]: misassembled hollow spheres; also recorded: the capsids were disrupted; Effect on capsid formation ([6]; 10 μM HBV Cp149, 300 mM NaCl, FIG. 1): misassembled hollow spheres; also recorded: capsid formation was disrupted; Size of the hollow spheres formed ([6]; 10 μM HBV Cp149, vehicle approximately 40 nm): 80-100 nm |
| C#CCNC(=O)C(=O)c1c(C)c(C(=O)Nc2cccc(S(F)(F)(F)(F)F)c2)n(C)c1C [Compound 60, 1,3,5-trimethyl-4-(2-oxo-2-(prop-2-yn-1-ylamino)acetyl)-N-(3-(pentafluorosulfanyl)phenyl)-1H-pyrrole-2-carboxamide] | 0.1 to 0.9 | 0.1 to 0.9 | 82 | 86 | > 100 | 23 | – |
| Cc1c(C(=O)C(=O)NCc2nccn2C)c(C)n(C)c1C(=O)Nc1ccc(F)c(F)c1 [Compound 48, N-(3,4-difluorophenyl)-1,3,5-trimethyl-4-(2-(((1-methyl-1H-imidazol-2-yl)methyl)amino)-2-oxoacetyl)-1H-pyrrole-2-carboxamide] | 0.001 to 0.009 | 0.01 to 0.09 | > 100 | > 100 | 84 | 27 | – |
| C=CCNC(=O)C(=O)c1c(C)c(C(=O)Nc2ccc(F)c(F)c2)n(C)c1C [Compound 75, 4-(2-(allylamino)-2-oxoacetyl)-N-(3,4-difluorophenyl)-1,3,5-trimethyl-1H-pyrrole-2-carboxamide] | 0.001 to 0.009 | 0.01 to 0.09 | 33 | > 100 | > 100 | 66 | – |
| Cc1c(C(=O)C(=O)Nc2ccccn2)c(C)n(C)c1C(=O)Nc1ccc(F)c(F)c1 [Compound 43, N-(3,4-difluorophenyl)-1,3,5-trimethyl-4-(2-oxo-2-(pyridin-2-ylamino)acetyl)-1H-pyrrole-2-carboxamide] | 0.01 to 0.09 | 0.1 to 0.9 | > 100 | > 100 | > 100 | 50 | – |
| Cn1cc(C(=O)C(=O)N2CCOCC2)cc1C(=O)Nc1ccc(F)c(F)c1 [Compound 31, N-(3,4-difluorophenyl)-1-methyl-4-(2-morpholino-2-oxoacetyl)-1H-pyrrole-2-carboxamide] | 0.01 to 0.09 | 1 to 9 | 41.9 | > 100 | 93.9 | > 100 | – |
| Cc1c(C(=O)C(=O)Nc2ccccn2)c(C)n(C)c1C(=O)Nc1ccccc1 [Compound 52, 1,3,5-trimethyl-4-(2-oxo-2-(pyridin-2-ylamino)acetyl)-N-phenyl-1H-pyrrole-2-carboxamide] | 0.01 to 0.09 | 0.1 to 0.9 | > 100 | > 100 | > 100 | 50 | – |

— US10752584B2 (EMORY UNIVERSITY, priority 2016, dated 2020)
